Measurements: article PMC8145596, “Novel Chemically Modified Curcumin (CMC) Derivatives Inhibit Tyrosinase Activity and Melanin Synthesis in B16F10 Mouse Melanoma Cells” (Biomolecules, 2021)

How the values were obtained:
[1] = Copper chelating assay (pyrocatechol violet)
Procedure: Copper chelation can be detected by a PV colorimetric assay as reported in other studies and similar to the method reported in our previous study. Briefly, 100 µL aliquots of different concentrations of compounds prepared in 50 mM sodium acetate buffer (pH 6.0) were added to a 96-well plate. The control group consisted of buffer only, while KA at 500 µM served as a positive control. Copper sulfate (2 mM; 10 µL) was added to each of the samples and incubated for 10 min. Next, 10 µL of 2 mM PV was added and the plate was further incubated for 20 min. The absorbance was read at 632 nm using a microplate reader; a lower absorbance compared to that of the buffer control was indicative of copper chelation.

[2] = test system: MNT-1 human melanoma cells; assay: Melanin content assay in MNT-1 cells; type: cell-based; details: 48 h; CMC2.24 at 20 µM; preliminary evaluation
Procedure: (§1) II. Experiments in MNT-1 human melanoma cells
(§2) MNT-1 cells (kindly provided by Dr. Michael Marks, University of Pennsylvania) were cultured using DMEM supplemented with 1 % MEM (minimum essential medium), 18 % HI-FBS, 10 % AIM-V medium (Gibco) and 1 % antibiotic mixture.
(§3) MNT-1 human melanoma cells (2 × 10^4 cells/ well) were seeded in a 96-well plate and cultured for 96 h. After this, the test compounds were added in complete medium and cultures were maintained for 48 h, followed by conducting the MTS assay to detect cytotoxicity similar to methods reports in main text. The results were expressed as % normalized to untreated control group.
(§4) MNT-1 human melanoma cells were seeded at 2.2 × 10^5 cells/well in 12-well plates and incubated for 24 hours. […] Briefly, the absorbance of melanin was measured at 475 nm and was normalized to the total protein contents and reported as relative melanin levels as a % of control.
(§5) Figure S3: Viability of MNT-1 cells treated with A) PC, CMC2.14 and CMC2.5 and B) CMC2.23 and CMC2.24 for a duration of 48 h evaluated by MTS assay; Data for A)-B) are mean ± SD of 3-4 determinations; C) Melanin content in cultures of MNT-1 cells treated for 48 h with different concentrations of PC and CMCs, Data are mean ± SD of values combined from two independent experiments. * p < 0.05 vs. control (Ctrl); One-way ANOVA with Tukey’s […]

[3] = test system: MNT-1 human melanoma cells; assay: MTS cytotoxicity assay in MNT-1 cells; type: cell-based; details: 20 µM, 48 h
Procedure: as §1, §2, §3, §4, §5

MTS cell viability assay = type: cell-based, mouse; details: mouse, B16F10 mouse melanoma cells, 48 h, B16F10
Procedure: B16F10 mouse melanoma cells (CRL-6475™) were obtained from American Type Culture Collection (ATCC, Manassas, VA, USA) and cultured using Dulbecco’s Modified Eagle Medium (DMEM) supplemented with 10% heat-inactivated fetal bovine serum (HI-FBS) and 1% antibiotics (penicillin-streptomycin) in a humidified incubator with 95% air—5% CO2 at 37 °C. In order to test the four CMCs (CMC2.14, CMC2.24, CMC2.5 and CMC2.23) to that of PC, for their effects on melanin content, we first screened them for cytotoxicity using a tetrazolium assay with MTS (Promega CellTiter Aqueous One). Briefly, B16F10 cells were seeded at 4 × 10^3 cells/well in a 96-well plate for 24 h. The compounds were diluted using culture medium to yield a final DMSO in all groups of 0.16% and added to the cell monolayers in wells after 24 h. Control was treated with 0.16% DMSO. At the end of 48 h, the medium was aspirated and replaced by 100 μL of fresh medium. 20 μL of MTS reagent was then added, and the plate was incubated at 37 °C for 40 min. At this point, the absorbance of 100 μL aliquots was read at 490 nm using a microplate reader. Cell viability was calculated from the absorbance values relative to control groups and expressed in %.

breast cancer cells = test system: breast cancer cells; parameters: method as in PMID 31505772; details: cited from earlier work

Molecule	copper chelating activity ([1]; 20 µM, compared to the control) [%]	melanin inhibition in MNT-1 cells [2]	cytotoxicity in MNT-1 cells [3]	viability at 48 h, 20 µM (MTS cell viability assay; 20 µM) [%]	viability at 48 h, 25 µM (MTS cell viability assay; 25 µM) [%]	effect on copper chelation [1]	concentrations highly cytotoxic to breast cancer cells (breast cancer cells) [µM]
O=C(/C=C/c1ccc(O)cc1)/C(C(=O)Nc1ccccc1)=C(O)/C=C/c1ccc(O)cc1 [CMC2.24]	11.86	significant attenuation of melanin levels	nontoxic				
COC(=O)/C(C(=O)/C=C/c1ccc(O)cc1)=C(O)\C=C\c1ccc(O)cc1 [CMC2.14]				72.2	55.5		
1,7-bis(4-hydroxy-3-methoxyphenyl)-1,6-heptadien-3,5-dione [PC, reference compound]		ineffective				did not show any effect on copper chelation	> 10
